Experimental data as given in patent US9250240B2, “Immunoreactive Ehrlichia p120/p140 epitopes and uses thereof” (Research Development Foundation, priority 2009, dated 2016).
No end group written: not given here.

Tests used:
[1] = system: E. chaffeensis antibodies in HME patient sera; assay: ELISA evaluation of E. chaffeensis immunodeterminants for serologic diagnosis of HME; format: binding, human
Protocol: ELISA. For epitope mapping, an ELISA was performed as previously described (Luo et al., 2009). For serologic diagnosis evaluation, an Immobilizer amino plate (Nunc, Roskilde, Denmark) was used to increase the signal-to-noise ratio. Immobilizer amino plates were coated with synthetic peptides or recombinant proteins (0.5 μg/well; 50 μl) suspended in 100 mM sodium carbonate buffer (pH 9.6) and incubated with gentle agitation at room temperature for 1 to 2 h or overnight at 4° C. The wells were washed four times with 300 μl phosphatebuffered saline containing 0.05% (vol/vol) Tween 20 (PBST; pH 7.2) by a plate washer (SkanWasher 400; Molecular Devices, Sunnyvale, Calif.). Dog or human sera diluted (1:100 or 1:200, respectively) in PBST were added to each well (50 μl) and incubated at room temperature for 1 h. The plates were washed again, and 50 μl alkaline phosphatase-labeled goat anti-dog or -human IgG(H+L) secondary antibody (Kirkegaard & Perry Laboratories, Gaithersburg, Md.) diluted (1:5,000) in PBST was added and incubated at room temperature for 1 h. After the addition of substrate (BluePhos; Kirkegaard & Perry Laboratories), plates were incubated in the dark for 30 min, color development was determined on a microplate reader (VersaMax; Molecular Devices, Sunnyvale, Calif.) at A650, and data were analyzed by SoftMax Pro version 4.0 (Molecular Devices). Optical density (OD) readings represent the mean OD value for three wells (±standard deviations) after subtracting the OD value of the negative control wells. All sera negative for E. chaffeensis by IFA had readings of <0.05 OD unit; therefore, a positive sample threshold was set at >0.1 OD unit. In addition, a reading of 0.1 to 0.5 OD unit was considered a weak positive, and a reading of >0.5 OD unit was considered a strong positive. IFA. The anti-E. chaffeensis antibody status in HME patient sera was determined as described previously (McBride et al., 2003). […] The statistical differences between experimental groups were assessed with the two-tailed Student t test, and significance was indicated by a P value of <0.05. […]

[2] = system: antibodies in anti-E. canis dog sera; assay: ELISA of overlapping synthetic peptides spanning the E. canis p140 repeat unit; format: binding; conditions: four anti-E. canis sera from naturally infected dogs (nos. 2160, 6, 10, 18)
Protocol: ELISA. Enzyme-linked immunosorbent assay (ELISA) plates (MaxiSorp; Nunc, Roskilde, Denmark) were coated (0.5 μg/well; 50 μl) with recombinant proteins or synthetic peptides suspended in phosphate-buffered saline (pH 7.4). Proteins and peptides were absorbed for 1 h at room temperature with gentle agitation, and subsequently washed thrice with 200 μl Tris-buffered saline containing 0.2% Tween 20 (TBST). Plates were blocked with 100 μl 10% equine serum (Sigma) in TBST for 1 h at room temperature with agitation, and washed. Convalescent dog or human sera diluted (1:100 or 1:200, respectively) in 10% equine serum-TBST were added to each well (50 μl) and incubated at room temperature for 1 h with gentle agitation. […] The plates were incubated in the dark for 30 min with agitation, and color development was determined on a microplate reader (VersaMax; Molecular Devices, Sunnyvale, Calif.) at A650 and data analyzed by SoftmaxPro v4.0 (Molecular Devices). Optical density (OD) readings represent the mean OD for three wells (±standard deviations) after subtracting the OD value of the buffer-only wells. A reading >0.2 OD unit above the negative control absorbance was considered positive for all samples. In addition, a reading 0.2-0.5 OD unit above the control absorbance was considered a weak positive, and a reading >0.5 OD unit above the control absorbance was considered a strong positive. […]

[3] = 31 HME patient sera (IFA titers 64 to 8192), positive = 0.1 OD unit above negative control

| Substance | % of patients with detectable antibodies [1, 3] | No. of patients with detectable antibodies [1, 3] | specificity for diagnosing HME ([1]; as worded in the summary) | Immunoreactivity by ELISA [2] |
| --- | --- | --- | --- | --- |
| TRP32 peptides: equal (w:w) mixture of TRP32-R3 and TRP32-R4 peptides (chain 1 SDLHGSFSVELFDPFKEAVQLGNDLQQSSD; chain 2 SDSHEPSHLELPSLSEEVIQLESDLQQSSN; not fully specified) | 87.1% | 27 | 87.1% | – |
| p140R-3: 11-mer overlapping synthetic peptide of the E. canis p140 repeat unit (SKEESTPEVKA) | – | – | – | virtually nonreactive |
